Experimental findings from ChEMBL document CHEMBL1667853, “Design and synthesis of potent Gram-negative specific LpxC inhibitors” (Bioorg Med Chem Lett, 2011) are described below.

The target of assay [1] is T1, UDP-3-O-acyl-N-acetylglucosamine deacetylase (Escherichia coli K-12, UniProt P0A725).
T1 sequence (P0A725 whole entry): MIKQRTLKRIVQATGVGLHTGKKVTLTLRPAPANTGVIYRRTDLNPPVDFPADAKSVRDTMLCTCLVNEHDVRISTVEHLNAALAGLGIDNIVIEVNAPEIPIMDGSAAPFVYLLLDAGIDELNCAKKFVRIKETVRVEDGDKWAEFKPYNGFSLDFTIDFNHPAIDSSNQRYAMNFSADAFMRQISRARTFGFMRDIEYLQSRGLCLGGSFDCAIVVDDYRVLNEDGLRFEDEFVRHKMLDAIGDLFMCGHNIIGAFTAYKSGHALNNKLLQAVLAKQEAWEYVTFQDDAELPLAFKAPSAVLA
Put plainly: Inhibition of Escherichia coli LpxC.

Assay [2] has as its system Escherichia coli. The assay is described as follows: Antimicrobial activity against Escherichia coli ATCC 25922 by broth dilution assay. It is filed as functional. For orientation: Dilution methods test growth across graded concentrations, often in twofold steps.
Assay [3] relates to Escherichia coli. The assay is described as follows: Antimicrobial activity against Escherichia coli HS294 by broth dilution assay. It is filed as functional.

SMILES strings stand for the structures. Converted amounts (≈) assume the structure as drawn.

In turn, `CC(C)(O)[C@@H](NC(=O)N1CCC(c2ccc(-c3ccccc3)cc2)CC1)C(=O)NO` yielded an IC50 in assay [1] of 2.5 nM. The MIC came to 0.8 µg/mL (≈ 1.94 µM) in assay [2] and 0.2 µg/mL (≈ 0.486 µM) in assay [3].

For `C[C@@H](O)[C@@H](NC(=O)N1CCN(c2ccc(C#Cc3cccs3)cc2)CC1)C(=O)NO`, the IC50 in assay [1] was 21 nM. Besides, the MIC in assay [2] was determined as 25 µg/mL (≈ 58.3 µM); in assay [3], 1.56 µg/mL (≈ 3.64 µM).

Molecule `C[C@@H](O)[C@@H](NC(=O)N1CCN(c2ccc(C#Cc3ccc(F)cc3)cc2)CC1)C(=O)NO` displayed a 50% inhibitory concentration (IC50) in assay [1] of 7 nM. Further, the MIC turned out to be 3.13 µg/mL (≈ 7.11 µM) in assay [2] and 0.8 µg/mL (≈ 1.82 µM) in assay [3].

On to `C[C@@H](O)[C@H](C(=O)NO)N1Cc2cc(C#Cc3cccc(-c4ccccc4)c3)ccc2C1=O`, for which half-maximal inhibition in assay [1] (IC50) was put at 971 nM.

`C[C@@H](O)[C@@H](NC(=O)N1CCN(c2ccc(-c3cncs3)cc2)CC1)C(=O)NO`: the concentration for half-maximal inhibition (IC50) in assay [1] was found to be 12 nM. Moreover, the minimum inhibitory concentration (MIC) in assay [2] stood at 100 µg/mL (≈ 247 µM); in assay [3], 3.13 µg/mL (≈ 7.72 µM).

In the case of `C[C@@H](O)[C@@H](NC(=O)N1CCCC(c2ccc(C#Cc3ccccc3)cc2)C1)C(=O)NO` (stereo partly specified), the IC50 in assay [1] amounted to 387 nM. Besides, the minimal inhibitory concentration (MIC) is greater than 100 µg/mL in assay [2] and 25 µg/mL (≈ 59.3 µM) in assay [3].

The molecule `CCCCCCCCCCCCCC(=O)O[C@@H]1[C@@H](CC(=O)NO)CO[C@H](CO)[C@H]1O` registered an inhibitory constant (Ki) in assay [1] of 650 nM.

Take `C[C@@H](O)[C@H](C(=O)NO)N1Cc2cc(C#Cc3ccccc3)ccc2C1=O`: the IC50 in assay [1] was determined as 130 nM.

In the case of `C[C@@H](O)[C@H](C(=O)NO)n1[nH]c2cc(C#Cc3ccccc3)ccc2c1=O`, the IC50 in assay [1] is 200 nM.

`C[C@@H](O)[C@@H](NC(=O)N1CCN(c2ccc(C#Cc3ccc(C(F)(F)F)cc3)cc2)CC1)C(=O)NO` registered an IC50 in assay [1] of 10.4 nM. Further, the MIC stood at 12.5 µg/mL (≈ 25.5 µM) in assay [2] and 1.56 µg/mL (≈ 3.18 µM) in assay [3].

Turning to `C[C@@H](O)[C@@H](NC(=O)N1CCN(c2ccc(C#Cc3ccc(N4CCOCC4)cc3)cc2)CC1)C(=O)NO`, the IC50 in assay [1] was 3 nM. In addition, the MIC in assay [2] was found to be 25 µg/mL (≈ 49.3 µM); in assay [3], 0.1 µg/mL (≈ 0.197 µM).

On to `NC[C@@H](NC(=O)N1CCC(c2ccc(C#Cc3ccccc3)cc2)CC1)C(=O)NO`, for which the half-inhibitory concentration (IC50) in assay [1] is 163 nM. Moreover, the MIC in assay [2] turned out to be 12.5 µg/mL (≈ 30.8 µM); in assay [3] it was 6.25 µg/mL (≈ 15.4 µM).

In turn, `C[C@@H](O)[C@@H](NC(=O)N1CCN(c2ccc(C#Cc3ccccn3)cc2)CC1)C(=O)NO` displayed a half-inhibitory concentration (IC50) in assay [1] of 10 nM. The minimal inhibitory concentration (MIC) in assay [2] was greater than 100 µg/mL; in assay [3], 6.25 µg/mL (≈ 14.8 µM).

`C[C@@H](O)[C@H](C(=O)NO)N1Cc2cc(Br)ccc2C1=O` yielded an IC50 in assay [1] greater than 61000 nM.

With `C[C@@H](O)[C@@H](NC(=O)N1CCN(c2ccc(C#Cc3ccc(O)cc3)cc2)CC1)C(=O)NO`, it took 4 nM to reach half-maximal inhibition in assay [1] (IC50). The minimal inhibitory concentration (MIC) is 1.56 µg/mL (≈ 3.56 µM) in assay [2] and 0.1 µg/mL (≈ 0.228 µM) in assay [3].

In assay [1], `CCCc1cc(C2=N[C@@H](C(=O)NO)CO2)cc(OC)c1OC` gave an inhibition constant (Ki) of 50 nM.

Molecule `C[C@@H](O)[C@@H](NC(=O)N1CCN(c2ccc(C#Cc3ccc(N4CCNCC4)cc3)cc2)CC1)C(=O)NO` came in with a concentration for half-maximal inhibition (IC50) in assay [1] of 23.3 nM. The results for the MIC in assay [2] and in assay [3] were 6.25 µg/mL (≈ 12.3 µM) and 0.4 µg/mL (≈ 0.79 µM), respectively.

`C[C@@H](O)[C@@H](NC(=O)N1CCN(c2ccc(-c3ccc(N4CCOCC4)cc3)cc2)CC1)C(=O)NO` gave an IC50 in assay [1] of 16.3 nM. In addition, the MIC in assay [2] was found to be 6.25 µg/mL (≈ 12.9 µM); in assay [3], 3.13 µg/mL (≈ 6.47 µM).

Turning to `C[C@@H](O)[C@@H](NC(=O)N1CCC(C#Cc2ccccc2)CC1)C(=O)NO`, in assay [1], the IC50 is 207 nM. Also, the figures for the MIC in assay [2] and in assay [3] were 25 µg/mL (≈ 72.4 µM) and 3.13 µg/mL (≈ 9.06 µM), respectively.

With `C[C@@H](O)[C@@H](NC(=O)NCc1ccc(C#Cc2ccccc2)cc1)C(=O)NO`, in assay [1], the IC50 was found to be 201 nM. Also, the MIC is greater than 100 µg/mL in assay [2] and 12.5 µg/mL (≈ 34 µM) in assay [3].

With `C[C@@H](O)[C@H](C(=O)NO)N1Cc2cc(C#Cc3ccc(-c4ccccc4)cc3)ccc2C1=O`, in assay [1], the half-maximal inhibitory concentration (IC50) came to 13 nM.

`C[C@@H](O)[C@H](C(=O)NO)N1Cc2cc(-c3ccc(-c4ccccc4)cc3)ccc2C1=O` came in with an IC50 in assay [1] of 50 nM.

In the case of `C[C@@H](O)[C@@H](NC(=O)N1CCN(c2ccc(C#Cc3ccncc3)cc2)CC1)C(=O)NO`, in assay [1], half-maximal inhibition (IC50) required 4 nM. Besides, the minimal inhibitory concentration (MIC) in assay [2] turned out to be 3.13 µg/mL (≈ 7.39 µM); in assay [3] it was 0.8 µg/mL (≈ 1.89 µM).

`C[C@@H](O)[C@@H](NC(=O)N1CCN(c2ccc(C#Cc3ccc(Cl)cc3)cc2)CC1)C(=O)NO` yielded a 50% inhibitory concentration (IC50) in assay [1] of 5 nM. Further, the figures for the MIC in assay [2] and in assay [3] were 6.25 µg/mL (≈ 13.7 µM) and 1.56 µg/mL (≈ 3.41 µM), respectively.

As to `C[C@@H](O)[C@H](C(=O)NO)N1Cc2cc(-c3ccc(C#Cc4ccccc4)cc3)ccc2C1=O`, in assay [1], the IC50 came to 29 nM.

The molecule `C[C@@H](O)[C@@H](NC(=O)NCCc1ccc(C#Cc2ccccc2)cc1)C(=O)NO` gave a half-maximal inhibitory concentration (IC50) in assay [1] of 1270 nM. Further, the MIC in assay [2] was greater than 100 µg/mL; in assay [3] it was 50 µg/mL (≈ 131 µM).

With `C[C@@H](O)[C@@H](NC(=O)N1CCN(c2ccc(C#Cc3cnccn3)cc2)CC1)C(=O)NO`, the concentration for half-maximal inhibition (IC50) in assay [1] came out at 136 nM. Besides, the MIC in assay [2] is greater than 100 µg/mL; in assay [3], 6.25 µg/mL (≈ 14.7 µM).

The molecule `CC(C)(O)[C@@H](NC(=O)N1CCN(c2ccc(-c3ccccc3)cc2)CC1)C(=O)NO` showed an IC50 in assay [1] of 7 nM. The values for the minimum inhibitory concentration (MIC) in assay [2] and in assay [3] were 3.13 µg/mL (≈ 7.59 µM) and 0.8 µg/mL (≈ 1.94 µM), respectively.

For `C[C@@H](O)[C@@H](NC(=O)N1CCC(c2cccc(C#Cc3ccccc3)c2)C1)C(=O)NO` (stereo partly specified), the 50% inhibitory concentration (IC50) in assay [1] worked out at 146 nM. For the same molecule, the MIC in assay [2] was found to be 100 µg/mL (≈ 245 µM); in assay [3], 1.56 µg/mL (≈ 3.83 µM).

Take `C[C@@H](O)[C@@H](NC(=O)N1CCN(c2ccc(C#Cc3ccccc3)cc2)CC1)C(=O)NO`: the IC50 in assay [1] came out at 2.4 nM. Moreover, the minimum inhibitory concentration (MIC) in assay [2] was found to be 1.56 µg/mL (≈ 3.69 µM); in assay [3], 0.2 µg/mL (≈ 0.473 µM).

On to `C[C@@H](O)[C@H](C(=O)NO)N1Cc2ccc(C#Cc3ccccc3)cc2C1=O`, for which, in assay [1], the 50% inhibitory concentration (IC50) was 34000 nM.

The molecule `C[C@@H](O)[C@@H](NC(=O)N1CCC(c2ccc(C#Cc3ccccc3)cc2)C1)C(=O)NO` (stereo partly specified) came in with an IC50 in assay [1] of 36 nM. Moreover, the results for the minimum inhibitory concentration (MIC) in assay [2] and in assay [3] were 100 µg/mL (≈ 245 µM) and 12.5 µg/mL (≈ 30.7 µM), respectively.

Consider `C[C@@H](O)[C@@H](NC(=O)N1CCC(c2ccc(C#Cc3ccccc3)cc2)CC1)C(=O)NO`, for which the MIC in assay [2] amounted to 12.5 µg/mL (≈ 29.7 µM); in assay [3] it was 0.8 µg/mL (≈ 1.9 µM).

Turning to `C[C@@H](O)[C@@H](NC(=O)N1CCC(c2ccccc2)CC1)C(=O)NO`, inhibition in assay [1] was half-maximal at 3940 nM (IC50). Moreover, the MIC in assay [3] amounted to 12.5 µg/mL (≈ 38.9 µM).

In assay [1], `C[C@@H](O)[C@@H](NC(=O)N1CCN(c2ccc(-c3ccccc3)cc2)CC1)C(=O)NO` displayed a half-maximal inhibitory concentration (IC50) of 5.6 nM. For the same molecule, the minimal inhibitory concentration (MIC) in assay [2] came to 3.13 µg/mL (≈ 7.86 µM); in assay [3] it was 0.8 µg/mL (≈ 2.01 µM).

On to `C[C@@H](O)[C@H](C(=O)NO)N1Cc2cc(-c3ccccc3)ccc2C1=O`, for which inhibition in assay [1] was half-maximal at 41000 nM (IC50).

As to `C[C@@H](O)[C@@H](NC(=O)N1CCN(c2ccc(C#Cc3ccc(CC#N)cc3)cc2)CC1)C(=O)NO`, inhibition in assay [1] was half-maximal at 11 nM (IC50). For the same molecule, the minimum inhibitory concentration (MIC) is 6.25 µg/mL (≈ 13.5 µM) in assay [2] and 0.8 µg/mL (≈ 1.73 µM) in assay [3].

In assay [1], `C[C@@H](O)[C@@H](NC(=O)N1CCN(c2ccc(C#Cc3ccc(N)cc3)cc2)CC1)C(=O)NO` came in with a 50% inhibitory concentration (IC50) of 26 nM. Moreover, the minimum inhibitory concentration (MIC) turned out to be 3.13 µg/mL (≈ 7.15 µM) in assay [2] and 1.56 µg/mL (≈ 3.57 µM) in assay [3].

In assay [1], `C[C@@H](O)[C@@H](NC(=O)N1CCN(c2ccc(C#Cc3cccnc3)cc2)CC1)C(=O)NO` registered an IC50 of 63 nM. For the same molecule, the values for the MIC in assay [2] and in assay [3] were 100 µg/mL (≈ 236 µM) and 12.5 µg/mL (≈ 29.5 µM), respectively.

With `C[C@@H](O)[C@@H](NC(=O)N1CCN(c2ccc(C#Cc3ccc(CN4CCOCC4)cc3)cc2)CC1)C(=O)NO`, the 50% inhibitory concentration (IC50) in assay [1] came out at 14 nM. Moreover, the MIC in assay [2] turned out to be 6.25 µg/mL (≈ 12 µM); in assay [3] it was 1.56 µg/mL (≈ 2.99 µM).

In general, IC50 refers to the concentration at which inhibition is half-maximal. Higher therefore signals lower potency. What is called MIC is the lowest concentration found to suppress growth. As usually defined, the Ki is a dissociation constant, usually derived from enzyme kinetics or from competition with a known ligand. Low readings indicate higher affinity, high ones lower affinity.
